In ChEMBL document CHEMBL1201862, “PubChem BioAssay data set” (2004):
Calls of active or inactive are those of the source.

Assays:
[1] = growth suppression of beta-catenin-knockout colon cells, dose response, cell-based, HCT116, human colon tumor (AID 1045); type: functional;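 further: HCT116 colon tumor cells with beta catenin knocked out; cells exposed to compound for 60 hours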
[2] = biological target: FAD-linked sulfhydryl oxidase ALR (Homo sapiens, UniProt P55789); test: inhibitors of human ALR sulfhydryl oxidase, dose response, biochemical, H2O2 detection, luminescence, cherry-pick (AID 493248)
[3] = growth suppression of PTEN-null colon cells, dose response, cell-based, HCT116 PTEN knockout (AID 1047); type: functional;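 further: HCT116 colon tumor cells with PTEN knocked out; cells exposed to compound for 60 hours before readout; potency for loss of cell viability measured by luminescence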
[4] = cells; type: functional
[5] = biological target: T1, Polyadenylate-binding protein 1 (Homo sapiens, UniProt P11940); test: PABP1 MLLE–PAM2 binding inhibitor potency, dose response, biochemical, fluorescence polarization, FITC-PAM2 peptide (AID 602259); type: functional; conditions: read-out: IC50_Mean
[6] = biological target: T1, Polyadenylate-binding protein 1; test: PABP1 MLLE–PAM2 interaction inhibitors, dose response, miRNA deadenylation inhibitor project, biochemical, fluorescence polarization, Cy5-PAM2 peptide, secondary (AID 602260); type: functional; conditions: read-out: IC50_Mean
[7] = biological target: Cytochrome P450 2D6 (Homo sapiens, UniProt P10635);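 further: CYP2D6 member of a cytochrome P450 panel assay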
[8] = inhibitors of intracellular T. cruzi replication, confirmation, NIH3T3 host cells, beta-gal luminescence (AID 2044); type: functional, cell-based;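 further: intracellular parasites grown in NIH/3T3 mouse fibroblasts as host cells; luminescent beta-galactosidase reporter signal from transgenic T. cruzi replicating inside host cells; inhibitors lower the luminescence signal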
[9] = HEp-2 cell cytotoxicity, dose response, cytotoxicity control for RSV inhibitor project, HTS (AID 2410); type: functional; conditions: human respiratory syncytial virus
[10] = cytotoxicity toward NIH3T3 fibroblasts, dose response, counter-screen, cell-based, ATP luminescence, mouse fibroblasts (AID 2010); type: functional;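 further: cells exposed to compound for about 90 hours before reading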
[11] = Luminescence Cell-Based Dose Confirmation HTS to Identify Inhibitors of Platelet Dense Granule Release. [Related pubchem assays: 1663 (Primary HTS), 1678 (Summary of Project)]; type: functional
[12] = biological target: Luciferin 4-monooxygenase (Photinus pyralis, UniProt P08659); test: firefly luciferase enzyme inhibitors, dose response, biochemical, luminescence (AID 1891)
[13] = cells; type: functional, cell-based
[14] = cells; type: functional, cell-based; remark: listed apart in the source
[15] = biological target: Cytochrome P450 2C9 (Homo sapiens, UniProt P11712)
[16] = biological target: T2, Heat shock factor protein 1 (Mus musculus, UniProt P38532); test: inhibition of MG132-induced HSE-luciferase signal, confirmation, cell-based, NIH3T3, luminescence, dose retest (AID 2382); type: functional;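 further: NIH3T3 fibroblasts with HSF1-driven luciferase reporter stressed by proteasome inhibitor MG132; luminescence from HSF1-driven luciferase expression after 8 hours of MG132 stress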
T2 sequence (P38532 whole entry): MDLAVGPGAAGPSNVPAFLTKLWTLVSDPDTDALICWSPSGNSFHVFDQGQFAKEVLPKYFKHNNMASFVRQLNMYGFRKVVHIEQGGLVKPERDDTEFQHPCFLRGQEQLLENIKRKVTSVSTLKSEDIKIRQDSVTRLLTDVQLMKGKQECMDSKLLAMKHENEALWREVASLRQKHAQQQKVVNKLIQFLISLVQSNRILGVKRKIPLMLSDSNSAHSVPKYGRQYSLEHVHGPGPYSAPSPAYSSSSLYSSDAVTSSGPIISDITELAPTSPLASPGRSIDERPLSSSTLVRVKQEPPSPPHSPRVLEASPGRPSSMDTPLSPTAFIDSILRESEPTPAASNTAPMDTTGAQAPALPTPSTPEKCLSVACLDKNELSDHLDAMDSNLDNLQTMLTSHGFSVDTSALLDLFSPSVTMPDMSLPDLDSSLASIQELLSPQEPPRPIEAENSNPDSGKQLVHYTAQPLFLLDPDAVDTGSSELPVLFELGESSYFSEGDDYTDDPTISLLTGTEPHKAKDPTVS

[17] = biological target: T3, Cytochrome P450 1A2 (Homo sapiens, UniProt P05177);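 further: PubChem cytochrome P450 panel assay, CYP1A2 panel member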
T3 sequence (P05177 whole entry): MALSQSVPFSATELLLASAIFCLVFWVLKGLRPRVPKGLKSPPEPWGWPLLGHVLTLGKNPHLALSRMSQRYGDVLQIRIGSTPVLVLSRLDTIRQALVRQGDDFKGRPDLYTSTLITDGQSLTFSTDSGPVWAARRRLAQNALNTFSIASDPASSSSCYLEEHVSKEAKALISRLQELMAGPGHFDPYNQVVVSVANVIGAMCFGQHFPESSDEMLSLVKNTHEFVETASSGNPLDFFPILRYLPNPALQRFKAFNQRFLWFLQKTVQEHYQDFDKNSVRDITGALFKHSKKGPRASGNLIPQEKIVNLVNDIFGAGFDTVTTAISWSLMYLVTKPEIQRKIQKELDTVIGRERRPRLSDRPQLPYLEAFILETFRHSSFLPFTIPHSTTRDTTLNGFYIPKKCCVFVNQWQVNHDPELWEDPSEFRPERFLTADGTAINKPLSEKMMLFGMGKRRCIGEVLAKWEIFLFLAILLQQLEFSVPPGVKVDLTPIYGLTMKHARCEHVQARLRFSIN

[18] = Luminescence Cell-Based Dose Retest to Confirm Inhibitors of Cancer Stem Cells. [Related pubchem assays (depositor defined):AID2717, AID2721]; type: functional; conditions: Homo sapiens
[19] = biological target: Cytochrome P450 2C19 (Homo sapiens, UniProt P33261); test: Cytochrome panel assay with activity outcomes. Panel member name: p450-cyp2c19 Compounds with AC50 equal or less than 10 uM are considered active; type: functional; conditions: read-out: AC50
[20] = Shn3 3'UTR reporter inhibitors, dose response, cell-based, Clone20 osteoblasts, firefly luciferase, cherry-picked (AID 624132); type: functional;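 further: firefly luciferase luminescence from reporter carrying the Shn3 3'UTR in osteoblasts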
[21] = control 3'UTR Renilla luciferase suppression, dose response, counter-screen for Shn3 inhibitor project, cell-based, Clone20-Shn3RL, cherry-picked (AID 624133); type: functional
[22] = HepG2 cell cytotoxicity, dose response, cytotoxicity control for Shn3 inhibitor project, CellTiter-Glo, cherry-picked (AID 624134); type: functional, cell-based
[23] = biological target: Cytochrome P450 3A4 (Homo sapiens, UniProt P08684);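 further: CYP3A4 tested as one member of a cytochrome P450 panel screen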
Sequence of Cytochrome P450 3A4 (P08684 whole entry): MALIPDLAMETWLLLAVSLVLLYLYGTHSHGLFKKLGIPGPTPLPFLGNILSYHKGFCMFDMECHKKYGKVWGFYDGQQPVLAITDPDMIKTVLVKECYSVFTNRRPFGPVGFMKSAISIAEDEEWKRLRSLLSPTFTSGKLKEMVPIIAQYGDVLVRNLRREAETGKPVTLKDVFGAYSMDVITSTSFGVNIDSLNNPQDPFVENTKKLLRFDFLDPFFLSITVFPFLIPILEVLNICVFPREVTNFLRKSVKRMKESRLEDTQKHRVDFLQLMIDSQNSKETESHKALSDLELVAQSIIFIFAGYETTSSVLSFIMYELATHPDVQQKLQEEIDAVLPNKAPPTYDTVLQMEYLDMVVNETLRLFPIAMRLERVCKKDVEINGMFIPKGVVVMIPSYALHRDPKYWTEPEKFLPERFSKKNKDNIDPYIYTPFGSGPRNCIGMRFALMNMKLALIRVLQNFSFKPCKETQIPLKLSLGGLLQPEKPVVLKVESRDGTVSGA

T1 sequence (P11940 whole entry): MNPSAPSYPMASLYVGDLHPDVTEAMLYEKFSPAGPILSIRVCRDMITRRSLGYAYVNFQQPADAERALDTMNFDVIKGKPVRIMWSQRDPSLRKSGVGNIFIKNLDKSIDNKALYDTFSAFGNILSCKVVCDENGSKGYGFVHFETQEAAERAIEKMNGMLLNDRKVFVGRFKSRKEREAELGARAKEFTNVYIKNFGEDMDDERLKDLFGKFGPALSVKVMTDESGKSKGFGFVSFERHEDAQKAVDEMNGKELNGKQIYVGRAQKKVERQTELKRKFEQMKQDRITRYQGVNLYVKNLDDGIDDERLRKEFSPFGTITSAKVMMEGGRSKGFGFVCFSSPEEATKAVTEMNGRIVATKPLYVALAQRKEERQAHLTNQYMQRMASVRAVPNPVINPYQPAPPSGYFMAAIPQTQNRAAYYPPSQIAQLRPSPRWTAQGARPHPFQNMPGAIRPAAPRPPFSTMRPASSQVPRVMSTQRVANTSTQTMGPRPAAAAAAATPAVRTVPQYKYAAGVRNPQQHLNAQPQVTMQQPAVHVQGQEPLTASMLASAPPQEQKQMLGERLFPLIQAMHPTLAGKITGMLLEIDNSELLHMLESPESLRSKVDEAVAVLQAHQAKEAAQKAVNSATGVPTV
Sequence of Luciferin 4-monooxygenase (P08659 whole entry): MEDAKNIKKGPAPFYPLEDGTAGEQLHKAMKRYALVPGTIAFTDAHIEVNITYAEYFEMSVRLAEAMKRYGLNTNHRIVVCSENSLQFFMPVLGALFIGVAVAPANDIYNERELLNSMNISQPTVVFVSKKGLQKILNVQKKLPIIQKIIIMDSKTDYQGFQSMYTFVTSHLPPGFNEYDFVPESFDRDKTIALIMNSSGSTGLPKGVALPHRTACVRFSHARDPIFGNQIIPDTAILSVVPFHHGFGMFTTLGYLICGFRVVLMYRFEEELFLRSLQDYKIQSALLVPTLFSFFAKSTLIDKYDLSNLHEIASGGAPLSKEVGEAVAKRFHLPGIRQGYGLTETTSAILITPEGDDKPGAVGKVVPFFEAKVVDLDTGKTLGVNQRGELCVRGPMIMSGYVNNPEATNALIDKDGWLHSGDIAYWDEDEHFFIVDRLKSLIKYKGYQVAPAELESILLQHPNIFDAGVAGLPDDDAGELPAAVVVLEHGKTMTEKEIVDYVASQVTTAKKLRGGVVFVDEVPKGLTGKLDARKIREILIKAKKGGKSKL
Sequence of FAD-linked sulfhydryl oxidase ALR (P55789 whole entry): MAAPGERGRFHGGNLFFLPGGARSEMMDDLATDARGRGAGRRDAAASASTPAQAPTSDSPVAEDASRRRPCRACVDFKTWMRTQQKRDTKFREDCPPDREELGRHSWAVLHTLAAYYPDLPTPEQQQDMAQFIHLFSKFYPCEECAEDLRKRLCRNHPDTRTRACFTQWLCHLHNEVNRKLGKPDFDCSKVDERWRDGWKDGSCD
Sequence of Cytochrome P450 2C9 (P11712 whole entry): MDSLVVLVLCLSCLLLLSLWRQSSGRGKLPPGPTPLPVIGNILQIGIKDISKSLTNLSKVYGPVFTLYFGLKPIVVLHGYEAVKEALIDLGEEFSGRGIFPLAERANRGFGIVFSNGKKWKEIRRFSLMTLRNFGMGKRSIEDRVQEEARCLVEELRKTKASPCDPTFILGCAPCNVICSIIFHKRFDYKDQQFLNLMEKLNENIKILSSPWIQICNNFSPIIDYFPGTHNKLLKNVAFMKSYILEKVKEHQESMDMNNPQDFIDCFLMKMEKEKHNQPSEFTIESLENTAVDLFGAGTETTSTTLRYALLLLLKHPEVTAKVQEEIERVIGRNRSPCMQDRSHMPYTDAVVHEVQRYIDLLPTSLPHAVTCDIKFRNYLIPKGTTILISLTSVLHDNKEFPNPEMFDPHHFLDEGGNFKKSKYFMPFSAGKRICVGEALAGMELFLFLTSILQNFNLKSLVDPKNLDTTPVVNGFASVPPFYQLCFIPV
Sequence of Cytochrome P450 2C19 (P33261 whole entry): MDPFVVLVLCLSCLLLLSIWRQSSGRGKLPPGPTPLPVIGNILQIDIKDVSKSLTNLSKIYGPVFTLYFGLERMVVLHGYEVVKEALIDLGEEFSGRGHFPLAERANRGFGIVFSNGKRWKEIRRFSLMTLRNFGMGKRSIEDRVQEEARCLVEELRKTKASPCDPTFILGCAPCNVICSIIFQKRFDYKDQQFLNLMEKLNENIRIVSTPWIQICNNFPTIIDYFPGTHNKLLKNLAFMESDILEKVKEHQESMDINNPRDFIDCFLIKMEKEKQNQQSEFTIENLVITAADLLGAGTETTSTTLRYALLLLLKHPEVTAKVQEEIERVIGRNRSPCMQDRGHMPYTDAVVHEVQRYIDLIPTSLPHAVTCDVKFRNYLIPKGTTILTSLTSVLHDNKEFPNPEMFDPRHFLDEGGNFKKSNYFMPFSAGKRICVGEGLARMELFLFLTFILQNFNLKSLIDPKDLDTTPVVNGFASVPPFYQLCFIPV
Sequence of Cytochrome P450 2D6 (P10635 whole entry): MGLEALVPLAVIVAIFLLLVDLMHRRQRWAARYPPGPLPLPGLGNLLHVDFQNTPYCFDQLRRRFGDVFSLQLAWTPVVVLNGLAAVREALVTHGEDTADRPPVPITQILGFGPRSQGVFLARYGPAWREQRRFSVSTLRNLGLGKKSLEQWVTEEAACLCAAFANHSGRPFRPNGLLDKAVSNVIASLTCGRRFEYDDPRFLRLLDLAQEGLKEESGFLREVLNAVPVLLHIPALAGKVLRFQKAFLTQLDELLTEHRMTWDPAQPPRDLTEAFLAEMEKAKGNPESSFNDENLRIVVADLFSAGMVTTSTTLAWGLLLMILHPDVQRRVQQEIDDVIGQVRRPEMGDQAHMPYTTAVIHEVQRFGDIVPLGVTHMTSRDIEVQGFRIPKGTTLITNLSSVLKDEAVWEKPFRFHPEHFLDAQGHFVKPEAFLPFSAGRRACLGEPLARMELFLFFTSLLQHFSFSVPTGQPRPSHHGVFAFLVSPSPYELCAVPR

SMILES: COc1ccc(S(=O)(=O)Cc2ccc(C(=O)N3CCN(c4ccc(Cl)cc4)CC3)o2)cc1
- EC50 [1]: 38.8 µM (active)
- AC50 [2]: 5.64 µM (active)
- EC50 [3]: 16.3 µM (active)

SMILES: CN1CCN(C(=S)c2ccc(N(C)C)cc2)CC1
- AC50 [2]: 1.45 µM (active)

SMILES: O=[N+]([O-])c1ccc(CN2CCN(c3ccc(F)cc3)CC2)o1
- IC50 [4]: < 0.1 µM (active)

SMILES: CC(C)CN(C(=O)COC(=O)c1ccc2c(c1)NC(=O)CS2)C1CCS(=O)(=O)C1 (stereo unspecified)
- IC50 [5]: > 66 µM (inactive)
- IC50 [6]: > 66 µM (inactive)

SMILES: O=C(Nc1cccc(NC(=O)c2ccc(-c3cccc(Br)c3)o2)c1)c1ccco1
- AC50 [7]: 17.8 µM (inconclusive)
- EC50 [8]: 3.69 µM (active)
- CC50 [9]: 16 µM (active)
- EC50 [10]: 14.9 µM (active)

SMILES: Cn1cc(C(=O)N2CCCC(Nc3ccc(F)cc3)C2)c2ccccc21 (stereo unspecified)
- AC50 [2]: 1.5 µM (active)

SMILES: Cc1ccc(CN(C(=O)c2csnn2)C(C(=O)NC2CCCC2)c2ccco2)cc1 (stereo unspecified)
- EC50 [11]: > 112 µM (not active)
- EC50 [12]: > 112 µM (not active)

SMILES: COC(=O)[C@H](CC(C)C)NC(=O)NCCC1=CCCCC1
- IC50 [4]: 21.6 µM (active)

SMILES: O=C1NCCCc2c1oc1cc(Br)c(O)c(Br)c21
- AC50 [2]: 3.5 µM (active)

SMILES: COc1ccc(OC)c(NC(=O)CS(=O)(=O)Cc2nc(-c3ccccc3C)oc2C)c1
- EC50 [11]: > 112 µM (not active)
- EC50 [12]: > 112 µM (not active)

SMILES: CCCCOC(=O)c1ccc(NC(=O)C(=O)NCc2cccnc2)cc1
- EC50 [13]: > 350 µM (not active)
- EC50 [14]: > 350 µM (not active)

SMILES: CC1CN=C(NC(=O)c2cccc([N+](=O)[O-])c2)S1 (stereo unspecified)
- IC50 [5]: > 66 µM (inactive)
- IC50 [6]: > 66 µM (inactive)

SMILES: CC(C)=CCN1CCN(CCC2=C(C)CCCC2(C)C)CC1CCO (stereo unspecified)
- IC50 [4]: 21.8 µM (active)

SMILES: CC(=O)c1c(C)nc2nonc2c1N
- EC50 [11]: 26.6 µM (active)
- EC50 [12]: > 112 µM (not active)

SMILES: NCCCCCc1nnc(SCc2ccc(Cl)cc2Cl)o1
- AC50 [15]: 14.1 µM (inconclusive)
- AC50 [2]: 2.63 µM (active)

SMILES: CN(C)c1ccc(/C=N/NC(=O)c2ccco2)cc1
- AC50 [2]: 6.78 µM (active)

SMILES: Cc1ccc(NC(=O)CN(c2ccc3c(c2)OCO3)S(=O)(=O)c2c(C)n[nH]c2C)cc1
- AC50 [2]: > 100 µM (inactive)

SMILES: COc1cccc(Nc2ccc(C(=O)O)cc2N)c1
- AC50 [2]: 1.17 µM (active)
- EC50 [16]: > 195 µM (not active)

SMILES: O=C(CS(=O)(=O)c1ccccc1)Nc1ccc(N2CCOCC2)cc1
- EC50 [13]: > 350 µM (not active)
- EC50 [14]: > 350 µM (not active)

SMILES: CCc1nc2sc3ccccc3c(=O)c2c(=O)n1Cc1ccc(OC)cc1
- CC50 [9]: > 50 µM (active)
- EC50 [16]: > 195 µM (not active)

SMILES: CCN1C(=O)[C@@H]2[C@@H](c3ccc(SC4CCCCC4)cc3)N3CCC[C@@]3(C(=O)OC)[C@@H]2C1=O
- IC50 [5]: > 66 µM (inactive)
- IC50 [6]: > 66 µM (inactive)

SMILES: COc1ccc(NC(=O)c2nc3nc(C)cc(C(F)F)n3n2)cc1OC
- EC50 [11]: > 112 µM (not active)
- EC50 [12]: 18.9 µM (active)

SMILES: CCc1c(C(C)S(=O)(=O)c2ccccc2)nc(O)n1CC (stereo unspecified)
- IC50 [5]: > 66 µM (inactive)
- IC50 [6]: > 66 µM (inactive)

SMILES: COCc1c(C(=O)N/N=C(\C)c2ccc(Cl)s2)nnn1-c1nonc1N
- EC50 [13]: > 350 µM (not active)
- EC50 [14]: > 350 µM (not active)

SMILES: O=C(c1ccc(S(=O)(=O)c2cccc(Cl)c2)c([N+](=O)[O-])c1)N1CCN(Cc2ccccc2)CC1
- CC50 [9]: 6.34 µM (active)

SMILES: Cc1ccc2c(c1)C(c1ccc([N+](=O)[O-])cc1)=NNC(c1ccc(Br)cc1)=N2
- CC50 [9]: 14.7 µM (active)

SMILES: CN(C)c1nc(-c2cn(CCC#N)c3ccccc23)cs1
- IC50 [5]: 56.9 µM (inactive)
- IC50 [6]: > 66 µM (inactive)

SMILES: CCOC(=O)c1c(NC(=O)/C=C/c2ccc3c(c2)OCO3)sc(C)c1CC
- AC50 [17]: 12.6 µM (inconclusive)
- EC50 [11]: > 112 µM (not active)
- AC50 [18]: 1.04 µM (active)
- EC50 [12]: > 112 µM (not active)

SMILES: Cc1cc(C)c2cc(CN(Cc3ccco3)C(=O)NCc3ccccc3)c(O)nc2c1
- EC50 [11]: > 112 µM (not active)
- EC50 [12]: > 112 µM (not active)

SMILES: CCCOc1ccc(NC(=O)CC2C(=O)N(CC)C(=S)N2CCCN2CCN(Cc3ccccc3)CC2)cc1 (stereo unspecified)
- CC50 [9]: 14.3 µM (active)

SMILES: CCOC(=O)C1CCN(C(=O)CCc2nnc3ccc(NCc4ccco4)nn23)CC1
- EC50 [11]: > 112 µM (not active)
- EC50 [12]: > 112 µM (not active)

SMILES: O=C(O)Cn1cc(C(=S)N2CCCCC2)c2ccccc21
- AC50 [2]: 0.407 µM (active)

SMILES: Cc1cccn2c(=O)c(/C=N/Cc3ccco3)c(Nc3ccc(SC(F)F)cc3)nc12
- AC50 [19]: 4.47 µM (inconclusive)
- EC50 [1]: 14 µM (active)
- EC50 [3]: 10.7 µM (active)

SMILES: COc1cccc(Nc2c(F)c(F)c(F)c(F)c2C(=O)O)c1
- AC50 [2]: 4.26 µM (active)

SMILES: O=P(CN1CCN(c2ccccc2)CC1)(N1CCCCC1)N1CCCCC1
- AC50 [2]: 0.656 µM (active)

SMILES: N#Cc1c2n(c(=S)n(-c3ccccc3[N+](=O)[O-])c1=O)CCCCC2
- IC50 [5]: > 66 µM (inactive)
- IC50 [6]: > 66 µM (inactive)

SMILES: CCOC(=O)c1cc(CC)sc1NC(=O)c1ccc([N+](=O)[O-])c(N2CCOCC2)c1
- EC50 [1]: 34.2 µM (active)
- EC50 [3]: 39.9 µM (active)

SMILES: CC(=O)c1ccc(N2CCC(c3cc(-c4ccc(Cl)cc4)[nH]n3)CC2)c([N+](=O)[O-])c1
- AC50 [20]: 5 µM (active)
- AC50 [17]: 2.82 µM (inconclusive)
- EC50 [8]: 1.13 µM (active)
- AC50 [21]: 20 µM (active)
- AC50 [22]: > 70 µM (inactive)
- AC50 [23]: 39.8 µM (inconclusive)
- EC50 [10]: > 60 µM (inconclusive)
- AC50 [18]: 2.39 µM (active)

SMILES: COc1cc2c(cc1NC(=O)CSc1nnnn1-c1ccccc1)oc1ccccc12
- CC50 [9]: 15.6 µM (active)

SMILES: COc1cc2ncnc(NCc3cccs3)c2cc1OC
- EC50 [13]: > 350 µM (not active)
- EC50 [14]: > 350 µM (not active)

SMILES: COc1ccc2oc(C(=O)OCC(=O)Nc3ccccc3OC)c(C)c2c1
- EC50 [13]: > 350 µM (not active)
- EC50 [14]: 40.5 µM (active)

SMILES: FC(F)c1nnc2ccc(Cl)nn12
- IC50 [4]: 7.13 µM (active)

SMILES: O=C(CN1C(=O)NC2(CCCCCC2)C1=O)c1ccccc1
- EC50 [11]: > 112 µM (not active)
- EC50 [12]: > 112 µM (not active)

SMILES: O=C(NCc1cccs1)C1CC(=O)N(C2CCCC2)C1 (stereo unspecified)
- EC50 [13]: > 350 µM (not active)
- EC50 [14]: > 350 µM (not active)

SMILES: CCOC(=O)Cc1cnc(S)nc1O
- IC50 [5]: > 66 µM (inactive)
- IC50 [6]: > 66 µM (inactive)
